From PMC8063233 (The Journal of Clinical Endocrinology and Metabolism, 2020)

Assay: Plasma pharmacokinetics on day 7 of each treatment period
Format: in vivo, human
Conditions: day 7, verinurad + febuxostat with placebo (n = 36)

tmax, Median (min-max): 4.00 (3.00-8.08) h
SMILES: CC(C)(Sc1ccncc1-c1ccc(C#N)c2ccccc12)C(=O)O [Verinurad, verinurad]
